Results taken from ChEMBL document CHEMBL3085753, “Bridged tricyclic sesquiterpenes from the tubercle nudibranch Phyllidia coelestis Bergh” (J Nat Prod, 2013).

Assays:
[1] = system: HT-29; experiment: Antiproliferative activity against human HT-29 cells by SRB assay; type: functional, cell-based
[2] = system: KB; experiment: Antiproliferative activity against human KB cells by SRB assay; type: functional, cell-based
[3] = system: HeLa; experiment: Antiproliferative activity against human HeLa cells by SRB assay; type: functional, cell-based
[4] = system: MCF7; experiment: Antiproliferative activity against human MCF7 cells by SRB assay; type: functional, cell-based
[5] = Cytotoxicity against human Gingival fibroblasts at 20 uM by SRB assay; parameters: species or system Gingival fibroblast; details: read-out: INH
[6] = system: HT-29; experiment: Antiproliferative activity against human HT-29 cells at 20 uM by SRB assay; type: functional

| Structure (SMILES) | IC50 [1] | IC50 [2] | IC50 [3] | IC50 [4] | cytotoxicity at 20 µM [5] | inhibition at 20 µM [6] |
| --- | --- | --- | --- | --- | --- | --- |
| CC[C@@]1(O)C(=O)OCc2c1cc1n(c2=O)Cc2cc3ccccc3nc2-1 [CAMPTOTHECIN] | 0.0007 µM | 0.02 µM | 0.13 µM | 0.0033 µM | – | – |
| CC(C)[C@@H]1C[C@@]2(C)[C@@H]3CC[C@@](C)(C[C@@H]31)[C@@H]2NC=O (relative stereo) | – | 1.2 µM | 0.07 µM | 8.2 µM | 25% | 35% |
| CC(C)[C@@H]1C[C@@]2(C)[C@@H]3CC[C@](C)(NC=O)[C@H]2C[C@@H]31 (relative stereo) | 6.8 µM | 2.4 µM | 0.13 µM | 0.65 µM | 65% | – |
